Data: patent publication US20260297060A1, “COMPOUNDS FOR THE DEGRADATION OF MUTANT BRAF” (C4 THERAPEUTICS, INC., priority 2023, published 2026)
Like-named read-outs stand apart in the source and are kept apart here.

Experiments:
BRAF V600E = target: T1, BRAF V600E (Homo sapiens, UniProt P15056+Q96SW2, V600E); experiment: BRAF V600E HiBiT Degradation Assay; assay type: cell-based
T1 construct: knock-in of the HiBiT tag to the endogenous BRAF V600E locus; host or cells: A375.10 (A375 clonal line, CRISPR HiBiT knock-in at the endogenous BRAF V600E locus)
Method in brief: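 Endogenous HiBiT knock-in on BRAF V600E in A375 cells (clone A375.10); 11-point half-log series, top 10 μM, 2, 6 or 24 h at 37° C. Lytic HiBiT luminescence, background-subtracted, normalized to DMSO; 4-parameter fit gives DC50, Emax (residual protein) and IP (inflection point).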

A375-NRAS^Q61K cells = experiment: CTGlo Cell Viability Assay, A375-NRAS^Q61K (A375.11) cells, 96 hours; assay type: cell-based, human; details: A375.11 (A375-NRAS^Q61K) cells; for Emax / CTGlo A375.11 96 hours Emax: lowest % viability achieved
Method in brief: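 Viability as CellTiter-Glo ATP luminescence after 96 h compound exposure at 37 °C; A375.11 (BRAF V600E/NRAS Q61K) cells at 250/well, top final concentration 10 μM in half-log steps. Signal was background-corrected and set relative to DMSO controls. A 4-parameter logistic fit gave GI50 (50% crossing) and Emax.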

[1] = A375.10 cells, BRAF V600E, 2 hours, inflection point, read-out: HiBiT-Degradation A375.10 BRAF 2 hours IP
[2] = A375.10 cells, BRAF V600E, 2 hours, read-out: HiBiT-Degradation A375.10 BRAF 2 hours DC50
[3] = A375.10 cells, BRAF V600E, 2 hours, residual protein remaining, read-out: HiBiT-Degradation A375.10 BRAF 2 hours Emax
[4] = read-out: HiBiT-Degradation A375.10 BRAF 2 hours DC50, A375.10 cells, BRAF V600E, 2 hours
[5] = read-out: HiBiT-Degradation A375.10 BRAF 2 hours IP, A375.10 cells, BRAF V600E, 2 hours, inflection point
[6] = A375.10 cells, BRAF V600E, 6 hours, inflection point, read-out: HiBiT-Degradation A375.10 BRAF 6 hours IP
[7] = A375.10 cells, BRAF V600E, 6 hours, read-out: HiBiT-Degradation A375.10 BRAF 6 hours DC50
[8] = A375.10 cells, HiBiT, BRAF V600E, 24 hours, read-out: HiBiT-Degradation A375.10 BRAF 24 hours DC50
[9] = A375.10 cells, HiBiT, BRAF V600E, 24 hours, read-out: HiBiT-Degradation A375.10 BRAF 24 hours IP
[10] = A375.10 cells, BRAF V600E, 2 hours, residual protein remaining
[11] = A375.10 cells, HiBiT, BRAF V600E, 24 hours, read-out: HiBiT-Degradation A375.10 BRAF 24 hours Emax

T1 sequence (P15056 whole entry V600E): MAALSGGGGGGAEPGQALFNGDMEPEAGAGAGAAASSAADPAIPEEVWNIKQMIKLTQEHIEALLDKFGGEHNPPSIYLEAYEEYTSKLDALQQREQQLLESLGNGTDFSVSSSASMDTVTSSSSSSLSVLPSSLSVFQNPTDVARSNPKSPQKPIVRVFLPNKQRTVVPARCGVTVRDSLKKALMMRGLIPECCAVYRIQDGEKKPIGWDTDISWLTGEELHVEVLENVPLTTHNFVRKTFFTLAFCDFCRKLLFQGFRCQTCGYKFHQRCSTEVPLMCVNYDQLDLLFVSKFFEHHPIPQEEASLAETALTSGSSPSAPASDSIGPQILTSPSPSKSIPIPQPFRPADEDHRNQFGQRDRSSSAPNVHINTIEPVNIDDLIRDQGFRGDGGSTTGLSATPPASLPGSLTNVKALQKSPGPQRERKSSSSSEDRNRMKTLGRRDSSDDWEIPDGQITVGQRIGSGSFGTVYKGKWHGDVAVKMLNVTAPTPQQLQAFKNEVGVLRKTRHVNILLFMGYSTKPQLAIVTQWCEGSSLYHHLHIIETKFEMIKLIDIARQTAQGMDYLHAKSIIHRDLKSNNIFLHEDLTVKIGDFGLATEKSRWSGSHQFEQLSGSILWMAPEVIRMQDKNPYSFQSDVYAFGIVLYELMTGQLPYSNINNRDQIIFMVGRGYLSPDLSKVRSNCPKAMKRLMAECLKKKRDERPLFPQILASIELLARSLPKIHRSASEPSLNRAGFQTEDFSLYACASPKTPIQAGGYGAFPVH
T1 sequence (Q96SW2 whole entry): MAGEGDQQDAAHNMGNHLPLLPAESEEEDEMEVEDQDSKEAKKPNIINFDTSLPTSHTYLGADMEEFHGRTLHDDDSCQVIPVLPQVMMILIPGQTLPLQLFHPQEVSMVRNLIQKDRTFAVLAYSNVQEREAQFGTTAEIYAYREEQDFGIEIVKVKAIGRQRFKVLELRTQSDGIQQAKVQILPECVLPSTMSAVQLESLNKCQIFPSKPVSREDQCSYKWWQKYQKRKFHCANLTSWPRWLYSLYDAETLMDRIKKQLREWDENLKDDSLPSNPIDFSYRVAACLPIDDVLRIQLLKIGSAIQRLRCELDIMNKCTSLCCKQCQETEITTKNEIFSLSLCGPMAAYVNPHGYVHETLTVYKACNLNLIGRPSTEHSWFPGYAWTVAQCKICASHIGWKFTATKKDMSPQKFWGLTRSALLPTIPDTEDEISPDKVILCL
T1 sequence (Q16531 whole entry partner): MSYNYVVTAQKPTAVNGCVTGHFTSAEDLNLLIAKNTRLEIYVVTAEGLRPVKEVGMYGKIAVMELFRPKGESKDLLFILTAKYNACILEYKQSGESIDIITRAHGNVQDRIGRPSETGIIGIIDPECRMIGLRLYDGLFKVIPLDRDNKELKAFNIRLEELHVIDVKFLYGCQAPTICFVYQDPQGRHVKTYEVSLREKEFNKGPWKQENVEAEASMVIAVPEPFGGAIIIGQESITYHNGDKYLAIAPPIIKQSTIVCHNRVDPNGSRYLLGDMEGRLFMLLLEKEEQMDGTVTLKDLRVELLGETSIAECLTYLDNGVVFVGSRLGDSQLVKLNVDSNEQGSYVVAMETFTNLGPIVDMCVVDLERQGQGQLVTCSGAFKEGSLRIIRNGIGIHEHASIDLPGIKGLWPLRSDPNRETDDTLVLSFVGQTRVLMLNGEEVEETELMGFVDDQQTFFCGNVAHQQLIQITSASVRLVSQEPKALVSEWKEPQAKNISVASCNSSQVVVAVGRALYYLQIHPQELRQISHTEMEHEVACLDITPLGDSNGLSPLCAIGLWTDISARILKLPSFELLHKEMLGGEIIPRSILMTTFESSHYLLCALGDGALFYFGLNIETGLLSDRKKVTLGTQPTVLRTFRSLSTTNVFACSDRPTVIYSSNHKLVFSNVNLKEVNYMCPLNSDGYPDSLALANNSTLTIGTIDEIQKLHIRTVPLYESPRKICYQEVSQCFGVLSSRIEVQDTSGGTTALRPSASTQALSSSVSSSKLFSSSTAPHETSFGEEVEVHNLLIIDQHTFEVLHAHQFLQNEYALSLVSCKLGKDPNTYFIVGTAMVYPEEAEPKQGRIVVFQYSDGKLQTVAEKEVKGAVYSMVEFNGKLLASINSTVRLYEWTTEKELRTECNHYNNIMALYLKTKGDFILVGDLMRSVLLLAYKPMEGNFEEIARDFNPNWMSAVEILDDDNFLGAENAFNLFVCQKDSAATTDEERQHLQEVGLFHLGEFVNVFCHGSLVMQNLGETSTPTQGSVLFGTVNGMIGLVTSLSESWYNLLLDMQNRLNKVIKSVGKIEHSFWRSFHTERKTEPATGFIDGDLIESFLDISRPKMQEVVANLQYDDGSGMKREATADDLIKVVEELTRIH

Row | Structure (SMILES) | DC50 (BRAF V600E; [1]) | DC50 (BRAF V600E; [2]) | Emax (BRAF V600E; [3]) | GI50 (A375-NRAS^Q61K cells; Homo sapiens, 96 h) | Emax (A375-NRAS^Q61K cells; Homo sapiens, 96 h) | GI50 (A375-NRAS^Q61K cells) | CTGlo A375.11 96 hours Emax (A375-NRAS^Q61K cells) | other results
1 | CN(CCO)S(=O)(=O)Nc1ccc(F)c(Oc2ccc3ncn([C@H]4COC5(CCN([C@H]6C[C@@H](c7cc8c(cc7F)c(N7CCC(=O)NC7=O)nn8C)C6)CC5)C4)c(=O)c3c2)c1C#N [Compound 165, (3R)-3-[6-[2-cyano-6-fluoro-3-[[2-hydroxyethyl(methyl)sulfamoyl]amino]phenoxy]-4-oxo-quinazolin-3-yl]-8-[3-[3-(2,4-dioxohexahydropyrimidin-1-yl)-5-fluoro-1-methyl-indazol-6-yl]cyclobutyl]-1-oxa-8-azaspiro[4.5]decane] | < 1 µM | < 1 µM | 50 to 90% | > 10 µM | 50 to 90% |  |  | 
2 | CN(CCO)S(=O)(=O)Nc1ccc(F)c(Oc2ccc3ncn([C@H]4COC5(CCC(N6CCC(c7cc8c(cc7F)c(N7CCC(=O)NC7=O)nn8C)C(F)(F)C6)CC5)C4)c(=O)c3c2)c1C#N (single isomer, unassigned) [Compound 212] | < 1 µM | < 1 µM | < 50% | < 1 µM | 50 to 90% |  |  | 
3 | Cn1nc(N2CCC(=O)NC2=O)c2cc(F)c(N3CC4(CC(N5CCC6(CC5)CC(c5cnc7ccc(Oc8c(F)ccc(NS(=O)(=O)C9CCCC9)c8C#N)cc7n5)C6)C4)C3)cc21 [Compound 283, N-[2-cyano-3-[3-[7-[2-[3-(2,4-dioxohexahydropyrimidin-1-yl)-5-fluoro-1-methyl-indazol-6-yl]-2-azaspiro[3.3]heptan-6-yl]-7-azaspiro[3.5]nonan-2-yl]quinoxalin-6-yl]oxy-4-fluoro-phenyl]cyclopentanesulfonamide] |  |  | < 50% | < 1 µM | 50 to 90% |  |  | DC50 (BRAF V600E; [4]): < 1 µM; DC50 (BRAF V600E; [5]): < 1 µM
4 | CCN(C)S(=O)(=O)Nc1ccc(F)c(Oc2ccc3ncn(C4CC5(CCC(N6CC[C@@H](c7cc8c(cc7F)c(N7CCC(=O)NC7=O)nn8C)C(F)(F)C6)CC5)C4)c(=O)c3c2)c1C#N (stereo partly drawn) [Compound 225, 6-[2-cyano-3-[[ethyl(methyl)sulfamoyl]amino]-6-fluoro-phenoxy]-3-[7-[(4S)-4-[3-(2,4-dioxohexahydropyrimidin-1-yl)-5-fluoro-1-methyl-indazol-6-yl]-3,3-difluoro-1-piperidyl]spiro[3.5]nonan-2-yl]-4-oxo-quinazoline] | < 1 µM | < 1 µM | < 50% | < 1 µM | < 50% |  |  | 
5 | CCN(C)S(=O)(=O)Nc1ccc(F)c(Oc2ccc3ncc(OCC4CCN(C5CC6(C5)CN(c5cc7c(cc5F)c(N5CCC(=O)NC5=O)nn7C)C6)CC4)nc3c2)c1C#N [Compound 223, 7-[2-cyano-3-[[ethyl(methyl)sulfamoyl]amino]-6-fluoro-phenoxy]-2-[[1-[2-[3-(2,4-dioxohexahydropyrimidin-1-yl)-5-fluoro-1-methyl-indazol-6-yl]-2-azaspiro[3.3]heptan-6-yl]-4-piperidyl]methoxy]quinoxaline] | < 1 µM | < 1 µM | < 50% | 1 to 10 µM | 50 to 90% |  |  | 
6 | Cn1nc(N2CCC(=O)NC2=O)c2cc(F)c(C3CCC(N4CCC5(CC4)CC(n4cnc6ccc(Oc7c(F)ccc(NS(=O)(=O)C8CCCC8)c7C#N)cc6c4=O)C5)CC3)cc21 (single isomer, unassigned) [Compound 94, N-[2-cyano-3-[3-[7-[4-[3-(2,4-dioxohexahydropyrimidin-1-yl)-5-fluoro-1-methyl-indazol-6-yl]cyclohexyl]-7-azaspiro[3.5]nonan-2-yl]-4-oxo-quinazolin-6-yl]oxy-4-fluoro-phenyl]cyclopentanesulfonamide] | < 1 µM | < 1 µM |  |  |  | < 1 µM | *** (<=50%) | HiBiT-Degradation A375.10 BRAF 2 hours Emax (BRAF V600E): *** (<=50%); DC50 (BRAF V600E; [6]): < 1 µM; DC50 (BRAF V600E; [7]): < 1 µM; HiBiT-Degradation A375.10 BRAF 6 hours Emax (BRAF V600E; A375.10 cells, BRAF V600E, 6 hours, residual protein remaining): *** (<=50%); HiBiT-Degradation A375.10 BRAF 24 hours Emax (BRAF V600E; A375.10 cells, HiBiT, BRAF V600E, 24 hours): *** (<=50%); DC50 (BRAF V600E; [8]): < 1 µM; DC50 (BRAF V600E; [9]): < 1 µM
7 | CCN(C)S(=O)(=O)Nc1ccc(F)c(Oc2ccc3ncc([C@@H]4COC5(CCN(C6CCC(c7ccc(NC8CCC(=O)NC8=O)cc7F)CC6)CC5)C4)nc3c2)c1C#N (single isomer, unassigned) [Compound 61] | < 1 µM | 1 to 10 µM |  |  |  | > 10 µM | ** (<90% and >50%) | HiBiT-Degradation A375.10 BRAF 2 hours Emax (BRAF V600E): ** (<90% and >50%)
8 | CCN(C)S(=O)(=O)Nc1ccc(F)c(Oc2ccc3ncn(C4CC5(CCN(C6CCC(c7cc8c(cc7F)c(N7CCC(=O)NC7=O)nn8C)CC6)CC5)C4)c(=O)c3c2)c1C#N (single isomer, unassigned) [Compound 9, 6-[2-cyano-3-[[ethyl(methyl)sulfamoyl]amino]-6-fluoro-phenoxy]-3-[7-[4-[3-(2,4-dioxohexahydropyrimidin-1-yl)-5-fluoro-1-methyl-indazol-6-yl]cyclohexyl]-7-azaspiro[3.5]nonan-2-yl]-4-oxo-quinazoline] | < 1 µM | < 1 µM |  |  |  | < 1 µM | *** (<=50%) | HiBiT-Degradation A375.10 BRAF 2 hours Emax (BRAF V600E; [10]): *** (<=50%); DC50 (BRAF V600E; [6]): < 1 µM; DC50 (BRAF V600E; [7]): < 1 µM; Emax (BRAF V600E; A375.10 cells, BRAF V600E, 6 hours, residual protein remaining, read-out: HiBiT-Degradation A375.10 BRAF 6 hours Emax): < 50%; DC50 (BRAF V600E; [8]): < 1 µM; Emax (BRAF V600E; [11]): < 50%; DC50 (BRAF V600E; [9]): < 1 µM
9 | CCN(C)S(=O)(=O)Nc1ccc(F)c(Oc2ccc3ncn(C4CC5(C4)CN(C4CC6(CCN(c7cc8c(cc7F)c(N7CCC(=O)NC7=O)nn8C)CC6)C4)C5)c(=O)c3c2)c1C#N (centres unmarked) [Compound 314, 6-[2-cyano-3-[[ethyl(methyl)sulfamoyl]amino]-6-fluoro-phenoxy]-3-[2-[7-[3-(2,4-dioxohexahydropyrimidin-1-yl)-5-fluoro-1-methyl-indazol-6-yl]-7-azaspiro[3.5]nonan-2-yl]-2-azaspiro[3.3]heptan-6-yl]-4-oxo-quinazoline] | < 1 µM | < 1 µM | < 50% | < 1 µM | 50 to 90% |  |  | DC50 (BRAF V600E; [8]): < 1 µM; Emax (BRAF V600E; [11]): < 50%; DC50 (BRAF V600E; [9]): < 1 µM
10 | CCN(C)S(=O)(=O)Nc1ccc(F)c(Oc2ccc3ncn(C4CC5(CCN(C6CCC(c7cc8c(cc7F)c(N7CCC(=O)NC7=O)nn8C)CC6F)CC5)C4)c(=O)c3c2)c1F (single isomer, unassigned) [Compound 185] | < 1 µM | > 10 µM |  |  |  | > 10 µM | ** (<90% and >50%) | HiBiT-Degradation A375.10 BRAF 2 hours Emax (BRAF V600E; [10]): ** (<90% and >50%)
11 | Cn1nc(N2CCC(=O)NC2=O)c2cc(F)c(N3CC4(CC(N5CCC6(CC5)CC(c5cnc7ccc(Oc8c(F)ccc(NS(=O)(=O)N9CC[C@@H](F)C9)c8C#N)cc7n5)C6)C4)C3)cc21 [Compound 265, (3R)-N-[2-cyano-3-[3-[7-[2-[3-(2,4-dioxohexahydropyrimidin-1-yl)-5-fluoro-1-methyl-indazol-6-yl]-2-azaspiro [3.3]heptan-6-yl]-7-azaspiro [3.5]nonan-2-yl]quinoxalin-6-yl]oxy-4-fluoro-phenyl]-3-fluoro-pyrrolidine-1-sulfonamide] |  |  | < 50% | < 1 µM | < 50% |  |  | DC50 (BRAF V600E; [4]): < 1 µM; DC50 (BRAF V600E; [5]): < 1 µM
12 | Cn1nc(N2CCC(=O)NC2=O)c2cc(F)c(C3CCC(N4CCC5(CC4)CC(c4cnc6ccc(Oc7c(F)ccc(NS(=O)(=O)N8CC[C@@H](F)C8)c7C#N)cc6n4)C5)CC3)cc21 (stereo partly drawn) [Compound 267, (3R)-N-[2-cyano-3-[3-[7-[4-[3-(2,4-dioxohexahydropyrimidin-1-yl)-5-fluoro-1-methyl-indazol-6-yl]cyclohexyl]-7-azaspiro[3.5]nonan-2-yl]quinoxalin-6-yl]oxy-4-fluoro-phenyl]-3-fluoro-pyrrolidine-1-sulfonamide] | < 1 µM | < 1 µM |  | < 1 µM | < 50% |  |  | Emax (BRAF V600E; read-out: HiBiT-Degradation A375.10 BRAF 2 hours Emax, A375.10 cells, BRAF V600E, 2 hours, residual protein remaining): < 50%
13 | CN(CCO)S(=O)(=O)Nc1ccc(F)c(Oc2ccc3ncc([C@H]4COC5(CCN(C6CCC(c7cc8c(cc7F)c(N7CCC(=O)NC7=O)nn8C)CC6)CC5)C4)nc3c2)c1C#N (single isomer, unassigned) [Compound 176] | < 1 µM | < 1 µM | < 50% | < 1 µM | 50 to 90% |  |  | 
